Each block holds one compound with its values, some of them ahead of it.
Legend:
cyclooxygenase-2 (COX-2) [1] = target: T1, cyclooxygenase-2 (COX-2) (Homo sapiens, UniProt P35354); assay: Whole cell cyclooxygenase assay, COX-2 (PGE2 synthesis in response to arachidonic acid, radioimmunoassay), human osteosarcoma 143 cells; format: cell-based; conditions: read-out: Whole Cells COX-2 % inhib.; for inhibition at 0.01 µM: 10 nM; for inhibition at 0.04 µM: 40 nM; for inhibition at 0.16 µM: 160 nM; for inhibition at 0.08 µM: 80 nM
T1 construct: human osteosarcoma 143 cells (which specifically express cyclooxygenase-2); endogenous in cells; host or cells: human osteosarcoma 143 cells (whole cells, and microsomes prepared from them)
T1 sequence (P35354 18-604): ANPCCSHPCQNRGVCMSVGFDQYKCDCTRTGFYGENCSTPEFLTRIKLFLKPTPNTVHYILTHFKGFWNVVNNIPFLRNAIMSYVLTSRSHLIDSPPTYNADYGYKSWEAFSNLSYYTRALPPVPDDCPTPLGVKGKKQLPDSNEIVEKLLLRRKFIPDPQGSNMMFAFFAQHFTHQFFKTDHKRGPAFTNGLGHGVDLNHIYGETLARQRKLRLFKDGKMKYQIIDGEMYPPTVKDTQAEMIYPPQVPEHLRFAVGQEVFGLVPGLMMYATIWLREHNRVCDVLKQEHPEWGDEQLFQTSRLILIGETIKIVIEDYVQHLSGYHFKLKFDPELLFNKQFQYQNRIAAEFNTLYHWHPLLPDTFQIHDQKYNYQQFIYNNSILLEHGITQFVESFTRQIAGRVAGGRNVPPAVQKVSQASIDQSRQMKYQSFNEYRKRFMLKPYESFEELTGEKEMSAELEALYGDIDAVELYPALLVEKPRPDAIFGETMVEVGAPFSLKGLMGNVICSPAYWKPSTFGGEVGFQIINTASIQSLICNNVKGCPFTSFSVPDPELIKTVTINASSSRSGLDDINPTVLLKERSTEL
Method: (§1) Compounds were tested as inhibitors of cyclooxygenase activity in whole cell and microsomal cyclooxygenase assays. Both of these assays measured prostaglandin E2 (PGE2) synthesis in response to arachidonic acid, using a radioimmunoassay. Cells used for whole cell assays, and from which microsomes were prepared for microsomal assays, were human osteosarcoma 143 cells (which specifically express cyclooxygenase-2) and human U-937 cells (which specifically express cyclooxygenase-1). In these assays, 100% activity is defined as the difference between prostaglandin E2 synthesis in the absence and presence of arachidonate addition.

cyclooxygenase-1 (COX-1) [2] = target: T2, cyclooxygenase-1 (COX-1) (Homo sapiens, UniProt P23219); assay: Whole cell cyclooxygenase assay, COX-1 (PGE2 synthesis in response to arachidonic acid, radioimmunoassay), human U-937 cells; format: cell-based; conditions: read-out: Whole Cells COX-1 % inhib.; for inhibition at 0.1 µM: 100 nM; for inhibition at 0.01 µM: 10 nM
T2 construct: human U-937 cells (which specifically express cyclooxygenase-1); endogenous in cells; host or cells: human U-937 cells (whole cells, and microsomes prepared from them)
Method: as §1

cyclooxygenase-2 (COX-2) [3] = target: T1, cyclooxygenase-2 (COX-2); assay: Microsomal cyclooxygenase assay, COX-2 (PGE2 synthesis, microsomes of human osteosarcoma 143 cells); format: biochemical; conditions: for inhibition at 0.1 µM: 100 nM; for inhibition at 0.1 µM / inhibition at 0.01 µM / inhibition at 1 µM: read-out: Microsomes COX-2 % inhib.; for inhibition at 1 µM: 1000 nM
Method: as §1

cyclooxygenase-1 (COX-1) [4] = target: T2, cyclooxygenase-1 (COX-1); assay: Microsomal cyclooxygenase assay, COX-1 (PGE2 synthesis, microsomes of human U-937 cells); format: biochemical; conditions: for inhibition at 0.1 µM: 100 nM; for inhibition at 0.1 µM / inhibition at 0.01 µM / inhibition at 1 µM: read-out: Microsomes COX-1 % inhib.; for inhibition at 1 µM: 1000 nM
Method: as §1

T2 sequence (P23219 24-599): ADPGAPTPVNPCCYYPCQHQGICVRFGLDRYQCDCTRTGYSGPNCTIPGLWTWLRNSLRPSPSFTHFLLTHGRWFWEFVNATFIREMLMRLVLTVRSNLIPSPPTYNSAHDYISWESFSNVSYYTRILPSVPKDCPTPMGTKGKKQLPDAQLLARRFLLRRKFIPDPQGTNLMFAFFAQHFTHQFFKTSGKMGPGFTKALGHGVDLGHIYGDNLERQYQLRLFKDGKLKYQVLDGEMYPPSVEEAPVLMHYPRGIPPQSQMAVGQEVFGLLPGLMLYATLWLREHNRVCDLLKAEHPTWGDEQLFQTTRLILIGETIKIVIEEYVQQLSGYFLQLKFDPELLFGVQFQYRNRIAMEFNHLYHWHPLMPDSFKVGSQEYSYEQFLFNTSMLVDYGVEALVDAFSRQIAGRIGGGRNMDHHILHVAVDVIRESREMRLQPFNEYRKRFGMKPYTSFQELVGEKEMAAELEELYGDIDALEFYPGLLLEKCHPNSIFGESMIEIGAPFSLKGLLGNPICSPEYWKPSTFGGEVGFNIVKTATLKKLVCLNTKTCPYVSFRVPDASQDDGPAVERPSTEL

Compound: CC(C)c1cc(-c2ccc(S(N)(=O)=O)cc2)c(-c2ccc(F)cc2)s1 [Example 3, 3-(4-(Aminosulfonyl)phenyl)-2-(4-fluorophenyl)-5-(2-propyl)thiophene]
inhibition at 0.01 µM (cyclooxygenase-2 (COX-2) [1]): 42% | inhibition at 0.1 µM (cyclooxygenase-2 (COX-2) [1]; 100 nM): 100% | inhibition at 0.01 µM (cyclooxygenase-2 (COX-2) [3]; 10 nM): 33% | inhibition at 0.1 µM (cyclooxygenase-2 (COX-2) [3]): 76% | inhibition at 0.01 µM (cyclooxygenase-1 (COX-1) [4]; 10 nM): 19% | inhibition at 0.1 µM (cyclooxygenase-1 (COX-1) [4]): 12%

Compound: CS(=O)(=O)c1ccc(-c2cc(C(=O)O)sc2-c2ccc(C(=O)O)cc2)cc1 [Example 5, 5-(4-Carboxyphenyl)-4-(4-(methylsulfonyl)phenyl)thiophene-2-carboxylic acid]
inhibition at 0.01 µM (cyclooxygenase-2 (COX-2) [1]): 0% | inhibition at 0.01 µM (cyclooxygenase-1 (COX-1) [2]): 0% | inhibition at 0.01 µM (cyclooxygenase-2 (COX-2) [3]; 10 nM): 43% | inhibition at 0.01 µM (cyclooxygenase-1 (COX-1) [4]; 10 nM): 31%

Compound: Cc1nc(-c2ccc(F)cc2)c(-c2ccc(S(C)(=O)=O)cc2)s1 [Example 6, 4-(4-Fluorophenyl)-2-methyl-5-(4-(methylsulfonyl)phenyl)thiazole]
inhibition at 0.1 µM (cyclooxygenase-2 (COX-2) [1]; 100 nM): 78% | inhibition at 0.1 µM (cyclooxygenase-2 (COX-2) [3]): 19% | inhibition at 0.1 µM (cyclooxygenase-1 (COX-1) [4]): 16%

Compound: CS(=O)(=O)c1ccc(C2=C(c3ccc(F)cc3)C(=O)CC2)cc1 [Example 7, 2-(4-Fluorophenyl)-3-(4-(methylsulfonyl)phenyl)-2-cyclopenten-1-one]
inhibition at 0.1 µM (cyclooxygenase-2 (COX-2) [1]; 100 nM): 74% | inhibition at 0.1 µM (cyclooxygenase-1 (COX-1) [2]): 0% | inhibition at 1 µM (cyclooxygenase-2 (COX-2) [3]): 58% | inhibition at 1 µM (cyclooxygenase-1 (COX-1) [4]): 16%

Compound: CS(=O)(=O)c1ccc(C2=C(c3ccc(F)cc3)C(=O)OC2)cc1 [Example 9, 3-(4-Fluorophenyl)-4-(4-(methylsulfonyl)phenyl)-2-(5H)-furanone]
inhibition at 0.1 µM (cyclooxygenase-2 (COX-2) [1]): 83% | inhibition at 0.1 µM (cyclooxygenase-2 (COX-2) [3]): 37%

Compound: CS(=O)(=O)c1ccc(-c2cocc2-c2ccc(F)cc2)cc1 [Example 11, 3-(4-Fluorophenyl)-4-(4-(methylsulfonyl)phenyl)furan]
inhibition at 0.1 µM (cyclooxygenase-2 (COX-2) [1]; 100 nM): 39% | inhibition at 0.1 µM (cyclooxygenase-2 (COX-2) [3]): 46% | inhibition at 0.1 µM (cyclooxygenase-1 (COX-1) [4]): 7%

Compound: O=C(NS(=O)(=O)c1ccc(-c2ccsc2-c2ccc(F)cc2)cc1)C(F)(F)F [Example 14, 3-(4-(Trifluoroacetylaminosulfonyl)phenyl)-2-(4-fluorophenyl)thiophene]
inhibition at 0.01 µM (cyclooxygenase-2 (COX-2) [1]): 73% | inhibition at 0.1 µM (cyclooxygenase-2 (COX-2) [1]; 100 nM): 89% | inhibition at 1 µM (cyclooxygenase-2 (COX-2) [1]; 1000 nM): 101% | inhibition at 0.01 µM (cyclooxygenase-2 (COX-2) [3]; 10 nM): 45% | inhibition at 0.1 µM (cyclooxygenase-2 (COX-2) [3]): 63% | inhibition at 1 µM (cyclooxygenase-2 (COX-2) [3]): 69% | inhibition at 0.01 µM (cyclooxygenase-1 (COX-1) [4]; 10 nM): 29% | inhibition at 0.1 µM (cyclooxygenase-1 (COX-1) [4]): 0% | inhibition at 1 µM (cyclooxygenase-1 (COX-1) [4]): 0%

Compound: CS(=O)(=O)c1ccc(C2=C(c3ccc(Cl)c(F)c3)C(=O)OC2)cc1 [Example 46, 3-(4-Chloro-3-fluorophenyl)-4-(4-(methylsulfonyl)phenyl)-2-(5H)-furanone]
inhibition at 0.01 µM (cyclooxygenase-2 (COX-2) [1]): 76% | inhibition at 0.04 µM (cyclooxygenase-2 (COX-2) [1]): 94% | inhibition at 0.16 µM (cyclooxygenase-2 (COX-2) [1]): 97%

Compound: CS(=O)(=O)c1ccc(C2=C(c3ccc(Br)cc3Cl)C(=O)OC2)cc1 [Example 48, 3-(4-Bromo-2-chlorophenyl)-4-(4-(methylsulfonyl)phenyl)-2-(5H)-furanone]
inhibition at 0.01 µM (cyclooxygenase-2 (COX-2) [1]): 7% | inhibition at 0.16 µM (cyclooxygenase-2 (COX-2) [1]): 47%

Compound: COc1ccc(C2=C(c3ccc(S(N)(=O)=O)cc3)COC2=O)cc1Cl [Example 53, 3-(3-Chloro-4-methoxyphenyl)-4-(4-(aminosulfonyl)phenyl)-2-(2H)-furanone]
inhibition at 0.01 µM (cyclooxygenase-2 (COX-2) [1]): 54% | inhibition at 0.04 µM (cyclooxygenase-2 (COX-2) [1]): 96% | inhibition at 0.16 µM (cyclooxygenase-2 (COX-2) [1]): 102%

Other lines, results leading:

inhibition at 0.1 µM (cyclooxygenase-2 (COX-2) [1]; 100 nM): 96% | inhibition at 0.1 µM (cyclooxygenase-1 (COX-1) [2]): 12% | inhibition at 0.1 µM (cyclooxygenase-2 (COX-2) [3]): 53% | inhibition at 0.1 µM (cyclooxygenase-1 (COX-1) [4]): 8%
Compound: CC(C)(O)c1cc(-c2ccc(S(N)(=O)=O)cc2)c(-c2ccc(F)cc2)s1 [Example 1]

inhibition at 0.01 µM (cyclooxygenase-2 (COX-2) [1]): 69% | inhibition at 0.01 µM (cyclooxygenase-1 (COX-1) [2]): 0% | inhibition at 0.01 µM (cyclooxygenase-2 (COX-2) [3]; 10 nM): 49% | inhibition at 0.01 µM (cyclooxygenase-1 (COX-1) [4]; 10 nM): 25%
Compound: NS(=O)(=O)c1ccc(-c2ccsc2-c2ccc(F)cc2)cc1 [Example 2, 3-(4-(Aminosulfonyl)phenyl)-2-(4-fluorophenyl)thiophene]

inhibition at 0.01 µM (cyclooxygenase-2 (COX-2) [3]; 10 nM): 47% | inhibition at 0.01 µM (cyclooxygenase-1 (COX-1) [4]; 10 nM): 2%
Compound: NS(=O)(=O)c1ccc(-c2ccsc2C2CCCCC2)cc1 [Example 4, 3-(4-(Aminosulfonyl)phenyl)-2-cyclohexylthiophene]

inhibition at 0.1 µM (cyclooxygenase-2 (COX-2) [1]; 100 nM): 95% | inhibition at 0.1 µM (cyclooxygenase-2 (COX-2) [3]): 71% | inhibition at 0.1 µM (cyclooxygenase-1 (COX-1) [4]): 12%
Compound: NS(=O)(=O)c1ccc(C2=C(c3ccc(F)cc3)C(=O)OC2)cc1 [Example 10, 3-(4-Fluorophenyl)-4-(4-(aminosulfonyl)phenyl)-2-(2H)-furanone]

inhibition at 0.01 µM (cyclooxygenase-2 (COX-2) [1]): 41% | inhibition at 0.1 µM (cyclooxygenase-2 (COX-2) [1]; 100 nM): 84% | Microsomes COX-2 % inhib. (cyclooxygenase-2 (COX-2) [3]; 10 nM, 0.01 µM): 58% | inhibition at 0.01 µM (cyclooxygenase-2 (COX-2) [3]; 10 nM): 52% | Microsomes COX-1 % inhib. (cyclooxygenase-1 (COX-1) [4]; 10 nM, 0.01 µM): 10% | inhibition at 0.01 µM (cyclooxygenase-1 (COX-1) [4]; 10 nM): 7%
Compound: NS(=O)(=O)c1ccc(-c2sccc2-c2ccc(F)cc2)cc1 [Example 13, 2-((4-aminosulfonyl)phenyl)-3-(4-fluorophenyl)thiophene]

inhibition at 0.01 µM (cyclooxygenase-2 (COX-2) [1]): 61% | inhibition at 0.04 µM (cyclooxygenase-2 (COX-2) [1]): 74% | inhibition at 0.16 µM (cyclooxygenase-2 (COX-2) [1]): 101%
Compound: CS(=O)(=O)c1ccc(C2=C(c3ccc(Br)c(F)c3)C(=O)OC2)cc1 [Example 47, 3-(4-Bromo-3-fluorophenyl)-4-(4-(methylsulfonyl)phenyl)-2-(5H)-furanone]

inhibition at 0.01 µM (cyclooxygenase-2 (COX-2) [1]): 53% | inhibition at 0.04 µM (cyclooxygenase-2 (COX-2) [1]): 91% | inhibition at 0.08 µM (cyclooxygenase-2 (COX-2) [1]): 99%
Compound: CS(=O)(=O)c1ccc(C2=C(c3ccc4ccccc4c3)C(=O)OC2)cc1 [Example 49, 3-(2-Naphthyl)-4-(4-(methylsulfonyl)phenyl)-2-(5H)-furanone]

inhibition at 0.08 µM (cyclooxygenase-2 (COX-2) [1]): 42%
Compound: CS(=O)(=O)c1ccc(C2=C(c3ccc4cccnc4c3)C(=O)OC2)cc1 [Example 50, 3-(7-Quinolinyl)-4-(4-(methylsulfonyl)phenyl)-2-(5H)-furanone]

inhibition at 0.005 µM (cyclooxygenase-2 (COX-2) [1]; 5 nM): 49% | inhibition at 0.02 µM (cyclooxygenase-2 (COX-2) [1]; 20 nM): 95% | inhibition at 0.04 µM (cyclooxygenase-2 (COX-2) [1]): 102%
Compound: NS(=O)(=O)c1ccc(C2=C(c3ccc(Cl)c(Cl)c3)C(=O)OC2)cc1 [Example 51, 3-(3 4-Dichlorophenyl)-4-(4-(aminosulfonyl)phenyl)-2-(2H)-furanone]

inhibition at 0.01 µM (cyclooxygenase-2 (COX-2) [1]): 50% | inhibition at 0.04 µM (cyclooxygenase-2 (COX-2) [1]): 82% | inhibition at 0.16 µM (cyclooxygenase-2 (COX-2) [1]): 102%
Compound: NS(=O)(=O)c1ccc(C2=C(c3ccc(F)c(F)c3)C(=O)OC2)cc1 [Example 52, 3-(3,4-Difluorophenyl)-4-(4-(aminosulfonyl)phenyl)-2-(2H)-furanone]

inhibition at 0.01 µM (cyclooxygenase-2 (COX-2) [1]): 81% | inhibition at 0.08 µM (cyclooxygenase-2 (COX-2) [1]): 91% | inhibition at 0.16 µM (cyclooxygenase-2 (COX-2) [1]): 99%
Compound: COc1ccc(C2=C(c3ccc(S(N)(=O)=O)cc3)COC2=O)cc1Br [Example 54, 3-(3-Bromo-4-methoxyphenyl)-4-(4-(aminosulfonyl)phenyl)-2-(2H)-furanone]
